Experimental data: US20100168192A1, “BENZISOXAZOLE DERIVATIVES AS POTASSIUM CHANNEL MODULATORS FOR THE TREATMENT OF E.G. RESPIRATORY DISEASES, EPILEPSY AND CONVULSIONS” (NeuroSearch A/S, priority 2007, published 2010)

Key:
BK channels = molecular target: T1, BK channels (Homo sapiens, UniProt Q12791); test: BK channel opening activity, two-electrode voltage clamp in Xenopus laevis oocytes; assay type: cell-based
T1 construct: expressed in transfected cells; host or cells: Xenopus laevis oocytes
T1 sequence (Q12791 whole entry): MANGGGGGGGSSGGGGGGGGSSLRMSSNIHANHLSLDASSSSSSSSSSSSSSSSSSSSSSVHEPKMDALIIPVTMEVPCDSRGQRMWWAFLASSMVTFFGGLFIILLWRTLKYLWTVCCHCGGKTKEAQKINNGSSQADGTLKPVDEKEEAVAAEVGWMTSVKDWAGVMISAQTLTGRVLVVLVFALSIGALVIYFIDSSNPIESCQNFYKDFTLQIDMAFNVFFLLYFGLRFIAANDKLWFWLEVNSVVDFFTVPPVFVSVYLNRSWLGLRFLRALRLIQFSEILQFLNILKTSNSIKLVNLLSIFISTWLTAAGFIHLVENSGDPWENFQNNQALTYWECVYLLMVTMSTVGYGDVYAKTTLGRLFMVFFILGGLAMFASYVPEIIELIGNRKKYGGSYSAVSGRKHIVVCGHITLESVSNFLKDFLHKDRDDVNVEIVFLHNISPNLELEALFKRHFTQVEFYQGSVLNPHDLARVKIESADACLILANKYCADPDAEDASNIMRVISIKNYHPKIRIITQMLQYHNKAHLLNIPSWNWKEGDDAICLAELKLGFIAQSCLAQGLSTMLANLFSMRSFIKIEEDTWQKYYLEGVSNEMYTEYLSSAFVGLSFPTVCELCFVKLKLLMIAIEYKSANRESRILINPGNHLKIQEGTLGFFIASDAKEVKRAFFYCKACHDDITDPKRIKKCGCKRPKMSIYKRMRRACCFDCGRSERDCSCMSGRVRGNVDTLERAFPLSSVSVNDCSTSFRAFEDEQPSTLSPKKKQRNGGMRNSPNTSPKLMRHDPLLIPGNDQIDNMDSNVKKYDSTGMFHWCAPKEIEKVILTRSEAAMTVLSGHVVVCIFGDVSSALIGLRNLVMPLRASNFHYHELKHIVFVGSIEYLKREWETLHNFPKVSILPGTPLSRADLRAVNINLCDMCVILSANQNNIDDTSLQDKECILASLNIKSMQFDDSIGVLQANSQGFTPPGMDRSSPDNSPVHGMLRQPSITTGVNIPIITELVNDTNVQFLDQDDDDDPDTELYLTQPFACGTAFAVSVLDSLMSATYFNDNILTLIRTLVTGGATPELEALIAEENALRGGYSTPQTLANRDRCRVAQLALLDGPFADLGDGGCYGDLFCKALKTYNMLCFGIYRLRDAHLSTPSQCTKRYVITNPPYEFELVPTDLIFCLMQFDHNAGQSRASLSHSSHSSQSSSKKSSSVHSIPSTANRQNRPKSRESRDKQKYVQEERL
Experimental: In this example the BK channel opening activity of Compound 1 (i.e. N-(2-Benzo[d]isoxazol-3-yl-acetyl)-methanesulfonamide) is determined using BK channels heterologously expressed in Xenopus laevis oocytes.
The electrical current through the BK channel was measured using conventional two-electrode voltage clamp. BK currents were activated by repeating ramp protocols. In brief, the membrane potential was continuously changed from −120 mV to +120 mV within a 2 s period. The threshold for BK activation is approximately +30 mV under control conditions. Compounds were applied for 100 s during which the ramp protocol was repeated 10 times with 10 s intervals. In between the ramp protocols the membrane potential was clamped at −80 mV. The first three compound applications were control blanks where the current level is allowed to stabilize.
In order to evaluate the ability of the compounds to shift the BK activation curve towards lower membrane potentials, the BK current was transformed into conductance by using Ohm's law g=I/(Ememb−Erev), where g is the conductance, I is the current, Ememb is the membrane potential and Erev is the reversal potential. The extracellular solution for these experiments contained 2.5 mM K+ and the intracellular K+ concentration of an oocyte was estimated to be 100 mM. Under those conditions, Nernst equation predicts a reversal potential of Erev=−93.2 mV. The control conductance level at a membrane potential of +100 mV was calculated, and the compound effect was evaluated as the potential difference, ΔV, to the membrane potential at which the same conductance level was obtained in the presence of compound.
The concentration response curve for this potential difference was fitted to the sigmoidal logistic equation: ΔV=ΔVmax/(1+(EC50/[compound])^n), where ΔVmax represents the maximal left shift of the BK activation curve, EC50 is the concentration causing a half maximal response, and n is the slope coefficient.

- melting point: 167 to 171 °C
- ΔVmax, maximal left-shift of the BK activation curve (BK channels; BK channels heterologously expressed in Xenopus laevis oocytes, 0.01-31.6 μM, fitted to sigmoidal logistic equation): −15 mV
- EC50 (BK channels; BK channels heterologously expressed in Xenopus laevis oocytes, 0.01-31.6 μM, ΔV at control conductance level of +100 mV, fitted to sigmoidal logistic equation, read-out: EC50 for the left-shift of the BKCa-activation curve): 300 nM
- BK current level at depolarizing potentials (BK channels; increasing concentrations (0.01-31.6 μM), ramp protocol −120 mV to +120 mV, Xenopus laevis oocytes): marked increase in the current level
Structure (SMILES): CS(=O)(=O)NC(=O)Cc1noc2ccccc12 [Compound 1, N-(2-Benzo[d]isoxazol-3-yl-acetyl)-methanesulfonamide]
